Legend:
[1] = system: Human immunodeficiency virus 1; experiment: In vitro antiviral activity against NNRTI-resistant R88703R-IIIB (Y181C) HIV-1 variant; format: functional, organism-based; details: Human immunodeficiency virus 1, IIIB
[2] = system: Human immunodeficiency virus 1; experiment: In vitro antiviral activity against NNRTI-resistant DLVR-MF (P236L) HIV-1 variant; format: functional, organism-based; details: Human immunodeficiency virus 1, IIIB
[3] = system: Human immunodeficiency virus 1; experiment: In vitro antiviral activity against NNRTI-resistant DLVR-IIIB (L100I) HIV-1 variant; format: functional, organism-based; details: Human immunodeficiency virus 1, IIIB
[4] = system: Human immunodeficiency virus 1; experiment: In vitro antiviral activity against NNRTI-resistant IIIB (WT) HIV-1 variant; format: functional, organism-based; details: Human immunodeficiency virus 1, IIIB
[5] = system: Human immunodeficiency virus 1; experiment: In vitro antiviral activity against NNRTI-resistant L-697661R-IIIB (Y181C) HIV-1 variant; format: functional, organism-based; details: Human immunodeficiency virus 1, IIIB
[6] = target: Human immunodeficiency virus type 1 reverse transcriptase (Human immunodeficiency virus 1, UniProt Q72547, P236L); experiment: Inhibitory activity against P236L mutant HIV-1 reverse transcriptase
[7] = system: Human immunodeficiency virus 1; experiment: Inhibition of p24 production in NNRTI-resistant L-697661R-IIIB (Y181C) HIV-1 variant at concentration 3 um; format: functional
[8] = target: Human immunodeficiency virus type 1 reverse transcriptase (Human immunodeficiency virus 1, UniProt Q72547, Y181C); experiment: Inhibitory activity against Y181C mutant HIV-1 reverse transcriptase
[9] = system: Human immunodeficiency virus 1; experiment: Inhibition of p24 production in NNRTI-resistant DLVR-MF (P236L) HIV-1 variant at concentration 0.01 um; format: functional
[10] = target: Human immunodeficiency virus type 1 reverse transcriptase (Human immunodeficiency virus 1, UniProt Q72547); experiment: Inhibitory activity against wild type HIV-1 reverse transcriptase (WT-RT)
[11] = target: Human immunodeficiency virus type 1 reverse transcriptase (Human immunodeficiency virus 1, UniProt Q72547, E233V); experiment: Inhibitory activity against E233V mutant HIV-1 reverse transcriptase
[12] = target: Human immunodeficiency virus type 1 reverse transcriptase (Human immunodeficiency virus 1, UniProt Q72547, L100I); experiment: Inhibitory activity against L100I mutant HIV-1 reverse transcriptase
[13] = target: Human immunodeficiency virus type 1 reverse transcriptase (Human immunodeficiency virus 1, UniProt Q72547, Y188H); experiment: Inhibitory activity against Y188H mutant HIV-1 reverse transcriptase
[14] = Pharmacokinetic parameter (Cmax ) was evaluated in Spargue-Dawley rat when given peroral at dose 80 mg/kg; format: ADME, organism-based; parameters: dose 80 mg/kg, route oral; details: Sprague-Dawley, in vivo, po
[15] = Pharmacokinetic parameter (CL/F ) was evaluated in Spargue-Dawley rat when given peroral at dose 30 mg/kg; format: ADME, organism-based; parameters: dose 30 mg/kg, route oral; details: Sprague-Dawley, in vivo, po
[16] = Pharmacokinetic parameter (Vss ) was evaluated in Spargue-Dawley rat when given intravenously at dose 15 mg/kg; format: ADME, organism-based; parameters: dose 15 mg/kg, route intravenous; details: Sprague-Dawley, in vivo, iv, read-out: Vss
[17] = Apparent terminal disposition half-life (t1/2) was evaluated in Spargue-Dawley rat when given peroral at dose 80 mg/kg; format: ADME, organism-based; parameters: dose 80 mg/kg, route oral; details: Sprague-Dawley, in vivo, po
[18] = Apparent terminal disposition half-life (t1/2 ) was evaluated in Spargue-Dawley rat when given peroral at dose 30 mg/kg; format: ADME, organism-based; parameters: dose 30 mg/kg, route oral; details: Sprague-Dawley, in vivo, po
[19] = Pharmacokinetic parameter (tmax) was evaluated in Spargue-Dawley rat when given peroral at dose 80 mg/kg; format: ADME, organism-based; parameters: dose 80 mg/kg, route oral; details: Sprague-Dawley, in vivo, po
[20] = Apparent terminal disposition half-life (t1/2 ) was evaluated in Spargue-Dawley rat when given intravenously at dose 15 mg/kg; format: ADME, organism-based; parameters: dose 15 mg/kg, route intravenous; details: Sprague-Dawley, in vivo, iv
[21] = Pharmacokinetic parameter (Absolute oral bioavailability) was evaluated in Spargue-Dawley rat when given peroral at dose 80 mg/kg; format: ADME, organism-based; details: Sprague-Dawley, in vivo
[22] = Pharmacokinetic parameter (Cmax ) was evaluated in Spargue-Dawley rat when given intravenously at dose 15 mg/kg; format: ADME, organism-based; parameters: dose 15 mg/kg, route intravenous; details: Sprague-Dawley, in vivo, iv
[23] = Pharmacokinetic parameter (Absolute oral bioavailability) was evaluated in Spargue-Dawley rat when given peroral at dose 30 mg/kg; format: ADME, organism-based; details: Sprague-Dawley, in vivo
[24] = Pharmacokinetic parameter (Cmax ) was evaluated in Spargue-Dawley rat when given peroral at dose 30 mg/kg; format: ADME, organism-based; parameters: dose 30 mg/kg, route oral; details: Sprague-Dawley, in vivo, po
[25] = Pharmacokinetic parameter (tmax ) was evaluated in Spargue-Dawley rat when given intravenously at dose 15 mg/kg; format: ADME, organism-based; parameters: dose 15 mg/kg, route intravenous; details: Sprague-Dawley, in vivo, iv
[26] = Pharmacokinetic parameter (tmax ) was evaluated in Spargue-Dawley rat when given peroral at dose 30 mg/kg; format: ADME, organism-based; parameters: dose 30 mg/kg, route oral; details: Sprague-Dawley, in vivo, po
[27] = Pharmacokinetic parameter (CL/F) was evaluated in Spargue-Dawley rat when given peroral at dose 80 mg/kg; format: ADME, organism-based; parameters: dose 80 mg/kg, route oral; details: Sprague-Dawley, in vivo, po

Row | Compound | IC50 [1] [nM] | IC50 [2] [nM] | IC50 [3] [nM] | IC50 [4] [nM] | IC50 [5] [nM] | IC50 [6] [nM] | IC50 [8] [nM] | IC50 [10] [nM] | IC50 [11] [nM] | IC50 [12] [nM] | IC50 [13] [nM] | further results
1 | CCc1cc(NCc2nc3c(Cl)ccc(Cl)c3o2)c(O)nc1C [L-697661] | 7700 | 430 | 4000 | 110 | > 10000 |  |  |  |  |  |  | 
2 | CC(C)Nc1cccnc1N1CCN(C(=O)c2cc3cc(NS(C)(=O)=O)ccc3[nH]2)CC1 [DELAVIRDINE] | 1000 | > 10000 | > 10000 | 50 |  |  |  |  |  |  |  | 
3 | C[C@@H](Sc1nc(N)cc(Cl)n1)c1cc2ccoc2cn1 |  | > 10 |  |  | > 3000 | 25 | > 50000 | 85 |  |  |  | Inhibition [7]: 0%; Inhibition [9]: 0%
4 | CC(=O)c1ccccc1NC(C(N)=O)c1c(Cl)cccc1Cl (configuration not stated) | > 10000 | 80 | 6500 | 150 | > 10000 |  |  |  |  |  |  | 
5 | CC(Sc1nc(N)cc(Cl)n1)c1cc2ccoc2cn1 (configuration not stated) | 170 | 10 | 60 | 2 | 2400 | 22 | 360 | 24 | 44 | 44 | 55 | 
6 | C[C@H](Sc1nc(N)cc(Cl)n1)c1cc2ccoc2cn1 | 170 | 8 | 70 | 1 | 1100 | 22 | 179 | 20 | 17 | 39 | 77 | Cmax [14]: 103 µM; CL/F [15]: 7.1 mL/min/kg; Vd [16]: 0.55 L/kg; half-life [17]: 1.5 h; half-life [18]: 0.78 h; Tmax [19]: 3.8 h; half-life [20]: 0.7 h; bioavailability [21]: 94%; Cmax [22]: 123 µM; bioavailability [23]: 94%; Cmax [24]: 52 µM; Tmax [25]: 1.98 min; Tmax [26]: 1.4 h; CL/F [27]: 7.1 mL/min/kg

— ChEMBL document CHEMBL1131332, “(-)-6-Chloro-2-[(1-furo[2, 3-c]pyridin-5-ylethyl)thio]-4-pyrimidinamine, PNU-142721, a new broad spectrum HIV-1 non-nucleoside reverse transcriptase inhibitor” (J Med Chem, 1998)
